ChEMBL document CHEMBL3091421, “Discovery of benzo[d]imidazo[5,1-b]thiazole as a new class of phosphodiesterase 10A inhibitors” (Bioorg Med Chem Lett, 2013)

What was measured:
[1] = molecular target: cGMP-specific 3',5'-cyclic phosphodiesterase (Homo sapiens) (UniProt O76074); assay: Inhibition of PDE5A (unknown origin) using [3H]-cGMP as substrate at 10 uM after 30 mins by radiometric assay
[2] = Cmax in Sprague-Dawley rat at 10 mg/kg, po by LC-MS/MS analysis; type: ADME, organism-based; parameters: dose 10 mg/kg, route oral; settings: in vivo
[3] = Ratio of drug level in brain to plasma in Sprague-Dawley rat at 10 mg/kg, po after 30 mins; type: ADME, organism-based; parameters: dose 10 mg/kg, route oral; settings: brain and plasma, read-out: BPR
Homo sapiens [4] = species on record: Homo sapiens; assay: Selectivity ratio of IC50 for PDE5A (unknown origin) to IC50 for human recombinant PDE10A
Rattus norvegicus [5] = assay: Antipsychotic activity in Sprague-Dawley rat psychosis model assessed as inhibition of MK-801-induced ataxia at 10 mg/kg, ip administered 5 mins prior to MK-801-challenge measured after 15 mins up to 1 hr relative to vehicle-treated control; type: functional; settings: route intraperitoneal
Rattus norvegicus [6] = assay: Antipsychotic activity in Sprague-Dawley rat conditioned avoidance response model assessed as reduction in avoidance at 1 mg/kg, ip after 15 mins relative to vehicle-treated control; type: functional; parameters: scale not given: the % may be the effect or the level left; settings: route intraperitoneal
[7] = molecular target: Dual 3',5'-cyclic-AMP and -GMP phosphodiesterase 11A (Homo sapiens) (UniProt Q9HCR9); assay: Inhibition of PDE11A (unknown origin) using [3H]-cAMP as substrate at 10 uM after 30 mins by radiometric assay
Dual 3',5'-cyclic-AMP and -GMP phosphodiesterase 11A (Homo sapiens), sequence (Q9HCR9 whole entry, looked up): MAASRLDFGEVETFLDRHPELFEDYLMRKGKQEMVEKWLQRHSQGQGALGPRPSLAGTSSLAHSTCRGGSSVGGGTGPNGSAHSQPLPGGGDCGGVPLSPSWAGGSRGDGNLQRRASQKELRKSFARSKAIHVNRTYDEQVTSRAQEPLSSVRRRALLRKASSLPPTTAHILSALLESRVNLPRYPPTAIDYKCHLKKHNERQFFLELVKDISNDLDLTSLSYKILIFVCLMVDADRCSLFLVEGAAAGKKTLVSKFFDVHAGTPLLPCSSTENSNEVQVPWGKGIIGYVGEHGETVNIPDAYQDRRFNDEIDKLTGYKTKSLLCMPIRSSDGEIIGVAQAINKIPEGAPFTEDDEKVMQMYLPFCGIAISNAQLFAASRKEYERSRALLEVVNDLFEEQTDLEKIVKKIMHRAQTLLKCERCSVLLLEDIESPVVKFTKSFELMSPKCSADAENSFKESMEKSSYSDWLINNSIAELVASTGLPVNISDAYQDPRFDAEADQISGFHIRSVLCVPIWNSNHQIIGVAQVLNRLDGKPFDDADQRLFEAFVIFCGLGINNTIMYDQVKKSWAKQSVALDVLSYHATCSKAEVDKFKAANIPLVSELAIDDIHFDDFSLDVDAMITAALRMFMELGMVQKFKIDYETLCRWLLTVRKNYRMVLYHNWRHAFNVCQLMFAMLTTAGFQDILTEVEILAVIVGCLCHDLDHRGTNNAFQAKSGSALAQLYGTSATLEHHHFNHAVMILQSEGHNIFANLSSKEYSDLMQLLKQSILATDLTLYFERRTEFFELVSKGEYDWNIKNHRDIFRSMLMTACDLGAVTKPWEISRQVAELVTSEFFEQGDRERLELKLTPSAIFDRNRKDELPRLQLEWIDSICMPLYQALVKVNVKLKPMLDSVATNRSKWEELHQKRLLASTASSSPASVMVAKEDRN

Rattus norvegicus [8] = assay: Antipsychotic activity in Sprague-Dawley rat psychosis model assessed as inhibition of MK-801-induced stereotypy at 1 mg/kg, ip administered 5 mins prior to MK-801-challenge measured after 15 mins up to 1 hr relative to vehicle-treated control; type: functional; settings: route intraperitoneal
[9] = molecular target: cGMP-inhibited 3',5'-cyclic phosphodiesterase 3A (Homo sapiens) (UniProt Q14432); assay: Inhibition of PDE3A (unknown origin) using cAMP as substrate at 10 uM after 30 mins by HTRF method
cGMP-inhibited 3',5'-cyclic phosphodiesterase 3A (Homo sapiens), sequence (Q14432 whole entry): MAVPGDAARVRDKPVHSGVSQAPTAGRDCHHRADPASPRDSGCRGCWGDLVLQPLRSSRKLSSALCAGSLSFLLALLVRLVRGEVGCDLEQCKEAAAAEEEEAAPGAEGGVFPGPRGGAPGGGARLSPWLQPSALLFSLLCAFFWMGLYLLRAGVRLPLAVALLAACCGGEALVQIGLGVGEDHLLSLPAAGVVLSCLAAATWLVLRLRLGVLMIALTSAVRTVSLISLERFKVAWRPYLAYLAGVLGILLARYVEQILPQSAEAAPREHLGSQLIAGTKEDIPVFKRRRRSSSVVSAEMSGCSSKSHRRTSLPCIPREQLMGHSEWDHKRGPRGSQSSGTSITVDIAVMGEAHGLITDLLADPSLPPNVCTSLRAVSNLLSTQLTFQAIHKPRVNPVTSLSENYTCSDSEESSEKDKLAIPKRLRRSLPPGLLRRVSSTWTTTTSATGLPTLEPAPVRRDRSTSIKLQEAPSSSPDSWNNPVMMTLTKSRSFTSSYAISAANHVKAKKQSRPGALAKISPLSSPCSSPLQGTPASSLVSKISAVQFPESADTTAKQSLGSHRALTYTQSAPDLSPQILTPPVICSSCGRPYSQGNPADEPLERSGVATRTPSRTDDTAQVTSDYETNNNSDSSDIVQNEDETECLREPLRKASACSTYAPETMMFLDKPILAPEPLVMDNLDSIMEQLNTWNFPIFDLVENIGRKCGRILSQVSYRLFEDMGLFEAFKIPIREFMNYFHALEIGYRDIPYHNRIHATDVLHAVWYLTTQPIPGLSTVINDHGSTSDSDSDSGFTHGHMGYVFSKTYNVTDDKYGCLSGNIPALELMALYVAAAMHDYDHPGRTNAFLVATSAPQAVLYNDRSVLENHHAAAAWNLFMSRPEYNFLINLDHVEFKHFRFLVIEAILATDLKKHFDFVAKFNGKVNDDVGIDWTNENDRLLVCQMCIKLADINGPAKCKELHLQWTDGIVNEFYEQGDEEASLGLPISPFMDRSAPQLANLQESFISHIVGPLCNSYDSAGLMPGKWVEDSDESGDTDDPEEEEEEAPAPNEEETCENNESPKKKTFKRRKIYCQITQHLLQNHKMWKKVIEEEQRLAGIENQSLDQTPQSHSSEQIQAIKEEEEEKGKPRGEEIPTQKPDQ

Rattus norvegicus [10] = assay: Antipsychotic activity in Sprague-Dawley rat psychosis model assessed as inhibition of MK-801-induced ataxia at 0.3 mg/kg, ip administered 5 mins prior to MK-801-challenge measured after 15 mins up to 1 hr relative to vehicle-treated control; type: functional; settings: route intraperitoneal
Rattus norvegicus [11] = assay: Antipsychotic activity in Sprague-Dawley rat psychosis model assessed as inhibition of MK-801-induced stereotypy at 0.3 mg/kg, ip administered 5 mins prior to MK-801-challenge measured after 15 mins up to 1 hr relative to vehicle-treated control; type: functional; settings: route intraperitoneal
Rattus norvegicus [12] = assay: Antipsychotic activity in Sprague-Dawley rat psychosis model assessed as inhibition of MK-801-induced locomotion at 1 mg/kg, ip administered 5 mins prior to MK-801-challenge measured after 15 mins up to 1 hr relative to vehicle-treated control; type: functional; settings: route intraperitoneal
Mus musculus [13] = assay: Antipsychotic activity in ip dosed CD-1 mouse assessed as reduction in apomorphine-induced climbing behavior administered 15 mins prior to apomorphine-challenge measured immediately relative to vehicle-treated control; type: functional; settings: CD-1, ip
[14] = molecular target: High affinity cAMP-specific and IBMX-insensitive 3',5'-cyclic phosphodiesterase 8A (Homo sapiens) (UniProt O60658); assay: Inhibition of PDE8A (unknown origin) using [3H]-cAMP as substrate at 10 uM after 30 mins by radiometric assay
High affinity cAMP-specific and IBMX-insensitive 3',5'-cyclic phosphodiesterase 8A (Homo sapiens), sequence (O60658 whole entry): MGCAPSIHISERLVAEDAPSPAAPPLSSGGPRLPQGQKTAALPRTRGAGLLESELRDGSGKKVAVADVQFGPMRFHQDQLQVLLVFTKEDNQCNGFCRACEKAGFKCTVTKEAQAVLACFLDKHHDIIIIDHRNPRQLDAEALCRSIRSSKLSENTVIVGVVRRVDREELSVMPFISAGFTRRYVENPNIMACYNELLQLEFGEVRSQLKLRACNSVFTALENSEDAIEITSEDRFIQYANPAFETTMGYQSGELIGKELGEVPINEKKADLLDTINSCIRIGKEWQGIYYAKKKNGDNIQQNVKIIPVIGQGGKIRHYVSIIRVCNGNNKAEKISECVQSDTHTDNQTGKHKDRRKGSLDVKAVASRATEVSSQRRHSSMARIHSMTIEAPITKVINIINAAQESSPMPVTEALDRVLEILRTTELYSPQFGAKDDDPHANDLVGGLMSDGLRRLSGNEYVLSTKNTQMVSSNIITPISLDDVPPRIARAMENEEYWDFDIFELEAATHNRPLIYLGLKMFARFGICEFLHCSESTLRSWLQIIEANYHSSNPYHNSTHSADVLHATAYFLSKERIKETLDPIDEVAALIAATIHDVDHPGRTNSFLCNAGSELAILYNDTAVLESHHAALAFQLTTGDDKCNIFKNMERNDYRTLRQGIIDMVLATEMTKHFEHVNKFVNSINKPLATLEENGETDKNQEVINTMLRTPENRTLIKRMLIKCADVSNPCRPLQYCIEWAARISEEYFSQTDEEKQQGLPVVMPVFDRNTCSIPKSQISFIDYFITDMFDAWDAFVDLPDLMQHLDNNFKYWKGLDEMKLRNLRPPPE

Rattus norvegicus [15] = assay: Antipsychotic activity in Sprague-Dawley rat psychosis model assessed as inhibition of MK-801-induced hyperlocomotion at 10 mg/kg, ip administered 5 mins prior to MK-801-challenge measured after 15 mins up to 1 hr; type: functional; settings: route intraperitoneal
Rattus norvegicus [16] = assay: Antipsychotic activity in Sprague-Dawley rat psychosis model assessed as inhibition of MK-801-induced stereotypy at 6 mg/kg, ip administered 5 mins prior to MK-801-challenge measured after 15 mins up to 1 hr relative to vehicle-treated control; type: functional; settings: route intraperitoneal
Rattus norvegicus [17] = assay: Antipsychotic activity in Sprague-Dawley rat assessed as reduction in quipazine-induced head-twitches at 0.3 mg/kg, ip administered 15 mins prior to quipazine-challenge measured immediately relative to vehicle-treated control; type: functional; parameters: scale not given: the % may be the effect or the level left; settings: route intraperitoneal
[18] = Plasma concentration in Sprague-Dawley rat at 10 mg/kg, po after 30 mins; type: ADME, organism-based; parameters: dose 10 mg/kg, route oral
[19] = molecular target: High affinity 3',5'-cyclic-AMP phosphodiesterase 7A (Homo sapiens) (UniProt Q13946); assay: Inhibition of PDE7A1 (unknown origin) using [3H]-cAMP as substrate at 10 uM after 30 mins by radiometric assay
High affinity 3',5'-cyclic-AMP phosphodiesterase 7A (Homo sapiens), sequence (Q13946 whole entry): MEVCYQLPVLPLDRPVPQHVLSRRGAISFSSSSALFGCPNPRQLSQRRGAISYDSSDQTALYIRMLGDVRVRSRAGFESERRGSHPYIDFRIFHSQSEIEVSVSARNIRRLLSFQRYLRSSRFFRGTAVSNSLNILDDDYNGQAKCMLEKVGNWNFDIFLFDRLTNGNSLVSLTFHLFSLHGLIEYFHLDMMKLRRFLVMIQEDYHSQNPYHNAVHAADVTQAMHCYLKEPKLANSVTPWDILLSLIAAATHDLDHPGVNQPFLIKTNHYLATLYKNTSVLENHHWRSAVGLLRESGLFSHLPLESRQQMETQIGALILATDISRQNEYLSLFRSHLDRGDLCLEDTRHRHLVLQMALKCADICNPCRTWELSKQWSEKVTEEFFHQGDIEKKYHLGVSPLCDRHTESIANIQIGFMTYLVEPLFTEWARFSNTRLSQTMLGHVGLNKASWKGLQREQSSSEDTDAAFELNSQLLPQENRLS

Homo sapiens [20] = species on record: Homo sapiens; assay: Selectivity ratio of IC50 for PDE2A (unknown origin) to IC50 for human recombinant PDE10A
Homo sapiens [21] = species on record: Homo sapiens; assay: Selectivity ratio of IC50 for PDE7A1 (unknown origin) to IC50 for human recombinant PDE10A
Rattus norvegicus [22] = assay: Antipsychotic activity in Sprague-Dawley rat psychosis model assessed as inhibition of MK-801-induced stereotypy at 3 mg/kg, ip administered 5 mins prior to MK-801-challenge measured after 15 mins up to 1 hr relative to vehicle-treated control; type: functional; settings: route intraperitoneal
Rattus norvegicus [23] = assay: Antipsychotic activity in Sprague-Dawley rat psychosis model assessed as inhibition of MK-801-induced locomotion at 10 mg/kg, ip administered 5 mins prior to MK-801-challenge measured after 15 mins up to 1 hr relative to vehicle-treated control; type: functional; settings: route intraperitoneal
[24] = AUC (0 to 24 hrs) in Sprague-Dawley rat at 10 mg/kg, po by LC-MS/MS analysis; type: ADME, organism-based; parameters: time < 24 hr, dose 10 mg/kg, route oral; settings: plasma
[25] = Half life in Sprague-Dawley rat at 10 mg/kg, po by LC-MS/MS analysis; type: ADME, organism-based; parameters: dose 10 mg/kg, route oral; settings: in vivo
Rattus norvegicus [26] = assay: Antipsychotic activity in Sprague-Dawley rat psychosis model assessed as inhibition of MK-801-induced ataxia at 1 mg/kg, ip administered 5 mins prior to MK-801-challenge measured after 15 mins up to 1 hr relative to vehicle-treated control; type: functional; settings: route intraperitoneal
[27] = Drug uptake in Sprague-Dawley rat brain at 10 mg/kg, po after 30 mins; type: ADME, organism-based; parameters: dose 10 mg/kg, route oral; settings: read-out: Drug uptake
Rattus norvegicus [28] = assay: Antipsychotic activity in ip dosed Sprague-Dawley rat psychosis model assessed as inhibition of MK-801-induced stereotypy administered 5 mins prior to MK-801-challenge measured after 15 mins up to 1 hr relative to vehicle-treated control; type: functional, organism-based
Mus musculus [29] = assay: Ratio of ED50 for antipsychotic activity in ip dosed CD-1 mouse assessed as reduction in apomorphine-induced sniffing behavior to ED50 for antipsychotic activity in ip dosed CD-1 mouse assessed as reduction in apomorphine-induced climbing behavior; type: functional
[30] = molecular target: Dual specificity calcium/calmodulin-dependent 3',5'-cyclic nucleotide phosphodiesterase 1A (Homo sapiens) (UniProt P54750); assay: Inhibition of PDE1A (unknown origin) at 10 uM
Dual specificity calcium/calmodulin-dependent 3',5'-cyclic nucleotide phosphodiesterase 1A (Homo sapiens), sequence (P54750 whole entry): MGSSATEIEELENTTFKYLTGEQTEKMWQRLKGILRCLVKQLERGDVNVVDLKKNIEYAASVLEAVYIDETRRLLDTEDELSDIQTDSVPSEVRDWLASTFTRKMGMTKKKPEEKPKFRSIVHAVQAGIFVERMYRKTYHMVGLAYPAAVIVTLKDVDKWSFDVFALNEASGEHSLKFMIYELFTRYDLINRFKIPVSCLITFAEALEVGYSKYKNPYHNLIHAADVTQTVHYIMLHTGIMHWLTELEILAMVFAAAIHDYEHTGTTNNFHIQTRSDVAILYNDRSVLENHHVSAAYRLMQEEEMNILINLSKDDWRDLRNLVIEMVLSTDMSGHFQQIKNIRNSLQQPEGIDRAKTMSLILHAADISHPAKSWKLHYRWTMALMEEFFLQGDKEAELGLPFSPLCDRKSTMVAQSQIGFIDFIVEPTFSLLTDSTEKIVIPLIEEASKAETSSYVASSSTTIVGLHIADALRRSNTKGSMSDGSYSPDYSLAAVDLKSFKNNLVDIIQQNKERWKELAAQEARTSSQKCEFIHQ

Rattus norvegicus [31] = assay: Antipsychotic activity in Sprague-Dawley rat assessed as reduction in quipazine-induced head-twitches at 1 mg/kg, ip administered 15 mins prior to quipazine-challenge measured immediately relative to vehicle-treated control; type: functional; parameters: scale not given: the % may be the effect or the level left; settings: route intraperitoneal
Rattus norvegicus [32] = assay: Antipsychotic activity in Sprague-Dawley rat psychosis model assessed as inhibition of MK-801-induced hyperlocomotion at 30 mg/kg, po administered 5 mins prior to MK-801-challenge measured after 15 mins up to 1 hr; type: functional

inhibition [1]: 45.5%
Cmax [2]: 0.72 µg/mL
Kp at 0.5 h [3]: 1.82
Ratio IC50 (Homo sapiens [4]): > 500
inhibition [7]: 19.2%
inhibition [9]: 11.3%
inhibition [14]: 18.5%
concentration at 0.5 h [18]: 0.37 µg/mL
inhibition [19]: 44%
Ratio IC50 (Homo sapiens [20]): > 500
Ratio IC50 (Homo sapiens [21]): > 500
AUC(0-t) at 24 h [24]: 2.83 µg·h/mL
half-life [25]: 2.1 h
concentration at 0.5 h [27]: 672 ng/g
inhibition [30]: 62.4%
Structure (SMILES): Cc1nc(C2CCOCC2)n2c1sc1cc(OCc3ccc4ccccc4n3)ccc12
inhibition in vivo at 10 mg/kg (Rattus norvegicus [5]): 82%
Activity (Rattus norvegicus [6]): 26%
inhibition in vivo at 1 mg/kg (Rattus norvegicus [8]): 27%
inhibition in vivo at 0.3 mg/kg (Rattus norvegicus [10]): 3%
inhibition in vivo at 0.3 mg/kg (Rattus norvegicus [11]): 58%
inhibition in vivo at 1 mg/kg (Rattus norvegicus [12]): 41%
ED50 (Mus musculus [13]): 2.68 mg/kg
inhibition in vivo at 10 mg/kg (Rattus norvegicus [15]): 92%
inhibition in vivo at 6 mg/kg (Rattus norvegicus [16]): 69%
Activity (Rattus norvegicus [17]): 25%
inhibition in vivo at 3 mg/kg (Rattus norvegicus [22]): 27%
inhibition in vivo at 10 mg/kg (Rattus norvegicus [23]): 83%
inhibition in vivo at 1 mg/kg (Rattus norvegicus [26]): 10%
inhibition (Rattus norvegicus [28]): Dose-dependent effect
Ratio ED50 (Mus musculus [29]): 6.08
Activity (Rattus norvegicus [31]): 47%
inhibition in vivo at 30 mg/kg (Rattus norvegicus [32]): 75%
